Read-outs that look alike come from different tables or passages of the source.
Columns and labels:
CDK9/Cyclin K = CDK9/Cyclin K (Homo sapiens, UniProt P50750); test: NanoBRET live-cell target engagement, NanoLuc-CDK9/Cyclin K in HEK-293; format: binding; settings: 10µM, read-out: CDK9/K Inhibition at 10µM (%)
CDK8/Cyclin C = CDK8/Cyclin C (Homo sapiens, UniProt P49336); test: NanoBRET live-cell target engagement, NanoLuc-CDK8/Cyclin C in HEK-293; format: binding; settings: 10µM, read-out: CDK8/C Inhibition at 10µM (%)
CDK20/Cyclin H = CDK20/Cyclin H (Homo sapiens, UniProt Q8IZL9); test: NanoBRET live-cell target engagement, NanoLuc-CDK20/Cyclin H in HEK-293; format: binding; settings: 10µM, read-out: CDK20/H Inhibition at 10µM (%)
Sequence of CDK20/Cyclin H (Q8IZL9 whole entry): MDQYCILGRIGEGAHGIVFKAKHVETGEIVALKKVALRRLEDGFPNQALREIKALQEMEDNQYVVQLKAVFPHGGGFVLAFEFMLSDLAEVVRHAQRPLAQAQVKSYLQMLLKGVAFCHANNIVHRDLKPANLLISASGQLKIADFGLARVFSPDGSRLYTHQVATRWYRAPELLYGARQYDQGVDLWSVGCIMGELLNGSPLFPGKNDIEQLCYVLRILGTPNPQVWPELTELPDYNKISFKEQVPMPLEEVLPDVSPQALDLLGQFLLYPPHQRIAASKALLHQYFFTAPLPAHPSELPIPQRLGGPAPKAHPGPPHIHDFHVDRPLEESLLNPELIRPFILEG
Sequence of CDK20/Cyclin H (P51946 whole entry partner): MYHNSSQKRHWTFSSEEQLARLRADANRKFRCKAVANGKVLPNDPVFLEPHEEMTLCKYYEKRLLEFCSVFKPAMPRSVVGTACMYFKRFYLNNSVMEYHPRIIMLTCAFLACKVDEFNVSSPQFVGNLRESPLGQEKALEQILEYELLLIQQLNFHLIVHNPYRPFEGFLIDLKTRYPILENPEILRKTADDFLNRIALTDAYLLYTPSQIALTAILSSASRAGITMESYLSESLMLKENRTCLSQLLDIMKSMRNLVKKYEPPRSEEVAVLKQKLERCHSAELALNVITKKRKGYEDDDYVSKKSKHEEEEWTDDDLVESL

CDK5/CDK5R1 = CDK5/CDK5R1 (Homo sapiens, UniProt Q00535); test: NanoBRET live-cell target engagement, CDK5-NanoLuc/CDK5R1 in HEK-293; format: binding; settings: 10µM, read-out: CDK5/CDK5R1 Inhibition at 10µM (%)
CDK15/Cyclin Y = CDK15/Cyclin Y (Homo sapiens, UniProt Q96Q40); test: NanoBRET live-cell target engagement, NanoLuc-CDK15/Cyclin Y in HEK-293; format: binding; settings: 10µM, read-out: CDK15/Y Inhibition at 10µM (%)
Sequence of CDK15/Cyclin Y (Q96Q40 whole entry): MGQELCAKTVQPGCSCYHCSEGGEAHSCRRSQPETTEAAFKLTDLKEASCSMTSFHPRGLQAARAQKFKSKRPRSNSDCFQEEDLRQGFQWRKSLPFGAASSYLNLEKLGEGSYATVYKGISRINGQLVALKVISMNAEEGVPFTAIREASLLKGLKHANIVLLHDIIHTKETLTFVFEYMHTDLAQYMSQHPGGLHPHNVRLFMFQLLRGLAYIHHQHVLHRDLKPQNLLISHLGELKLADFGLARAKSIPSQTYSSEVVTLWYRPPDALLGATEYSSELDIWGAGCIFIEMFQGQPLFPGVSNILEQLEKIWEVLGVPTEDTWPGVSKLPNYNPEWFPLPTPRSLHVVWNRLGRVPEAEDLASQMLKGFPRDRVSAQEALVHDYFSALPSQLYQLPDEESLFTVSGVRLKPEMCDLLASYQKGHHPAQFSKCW
Sequence of CDK15/Cyclin Y (Q8ND76 whole entry partner): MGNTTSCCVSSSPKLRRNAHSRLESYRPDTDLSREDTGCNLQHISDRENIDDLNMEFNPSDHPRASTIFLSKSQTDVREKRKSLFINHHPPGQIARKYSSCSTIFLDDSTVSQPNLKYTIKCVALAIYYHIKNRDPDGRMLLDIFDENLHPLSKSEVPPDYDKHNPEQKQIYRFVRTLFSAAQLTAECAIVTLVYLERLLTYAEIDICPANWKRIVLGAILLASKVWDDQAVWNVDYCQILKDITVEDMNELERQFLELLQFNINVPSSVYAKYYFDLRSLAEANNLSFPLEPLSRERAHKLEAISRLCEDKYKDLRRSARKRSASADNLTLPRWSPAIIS

CDK10/Cyclin L2 = CDK10/Cyclin L2 (Homo sapiens, UniProt Q15131); test: NanoBRET live-cell target engagement, CDK10-NanoLuc/Cyclin L2 in HEK-293; settings: read-out: CDK10/L2 Inhibition at 10µM (%), 10µM
Sequence of CDK10/Cyclin L2 (Q15131 whole entry): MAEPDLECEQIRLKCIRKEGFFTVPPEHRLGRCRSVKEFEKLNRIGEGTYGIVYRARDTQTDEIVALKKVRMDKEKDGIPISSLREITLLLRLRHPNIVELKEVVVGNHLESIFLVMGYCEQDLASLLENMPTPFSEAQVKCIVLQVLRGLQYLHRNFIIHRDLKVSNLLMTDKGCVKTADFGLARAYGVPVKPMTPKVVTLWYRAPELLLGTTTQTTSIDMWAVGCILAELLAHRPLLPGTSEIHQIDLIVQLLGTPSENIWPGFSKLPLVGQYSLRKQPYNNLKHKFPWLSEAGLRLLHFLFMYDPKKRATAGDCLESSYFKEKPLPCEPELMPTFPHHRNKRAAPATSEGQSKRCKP

CDK2/Cyclin E1 = CDK2/Cyclin E1 (Homo sapiens, UniProt P24941); test: NanoBRET live-cell target engagement, CDK2-NanoLuc/Cyclin E1 in HEK-293; format: binding; settings: 10µM, read-out: CDK2/E1 Inhibition at 10µM (%)
CDK7 = CDK7 (Homo sapiens, UniProt P50613); test: NanoBRET live-cell target engagement, NanoLuc-CDK7 in HEK-293; format: binding; settings: 10µM, read-out: CDK7 Inhibition at 10µM (%)
Sequence of CDK7 (P50613 whole entry): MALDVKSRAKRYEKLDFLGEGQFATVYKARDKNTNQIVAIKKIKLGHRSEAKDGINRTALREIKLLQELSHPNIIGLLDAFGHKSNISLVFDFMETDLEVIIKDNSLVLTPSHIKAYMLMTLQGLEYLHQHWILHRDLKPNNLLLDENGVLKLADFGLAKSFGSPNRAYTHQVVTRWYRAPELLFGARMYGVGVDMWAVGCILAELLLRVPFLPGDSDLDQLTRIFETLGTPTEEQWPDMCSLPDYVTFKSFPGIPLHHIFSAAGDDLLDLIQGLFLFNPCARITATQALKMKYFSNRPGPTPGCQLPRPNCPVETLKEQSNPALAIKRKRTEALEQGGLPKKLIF

CDK12/Cyclin K = CDK12/Cyclin K (Homo sapiens, UniProt Q9NYV4); test: NanoBRET live-cell target engagement, CDK12-NanoLuc/Cyclin K in HEK-293; format: binding; settings: 10µM; independent experiment 2; read-out: CDK12/K Inhibition at 10µM (%)
CDK13/Cyclin K = CDK13/Cyclin K (Homo sapiens, UniProt Q14004); test: NanoBRET live-cell target engagement, CDK13-NanoLuc/Cyclin K in HEK-293; format: binding; settings: 10µM, read-out: CDK13/K Inhibition at 10µM (%)
CDK19/Cyclin C = CDK19/Cyclin C (Homo sapiens, UniProt Q9BWU1); test: NanoBRET live-cell target engagement, NanoLuc-CDK19/Cyclin C in HEK-293; settings: read-out: CDK19/C Inhibition at 10µM (%), 10µM
CDK11A/Cyclin L2 = target: T1, CDK11A/Cyclin L2 (Homo sapiens, UniProt Q9UQ88); test: NanoBRET live-cell target engagement, CDK11A-NanoLuc/Cyclin L2 in HEK-293; format: binding; settings: 10µM, read-out: CDK11a/L2 Inhibition at 10µM (%)
T1 sequence (Q9UQ88 1-783): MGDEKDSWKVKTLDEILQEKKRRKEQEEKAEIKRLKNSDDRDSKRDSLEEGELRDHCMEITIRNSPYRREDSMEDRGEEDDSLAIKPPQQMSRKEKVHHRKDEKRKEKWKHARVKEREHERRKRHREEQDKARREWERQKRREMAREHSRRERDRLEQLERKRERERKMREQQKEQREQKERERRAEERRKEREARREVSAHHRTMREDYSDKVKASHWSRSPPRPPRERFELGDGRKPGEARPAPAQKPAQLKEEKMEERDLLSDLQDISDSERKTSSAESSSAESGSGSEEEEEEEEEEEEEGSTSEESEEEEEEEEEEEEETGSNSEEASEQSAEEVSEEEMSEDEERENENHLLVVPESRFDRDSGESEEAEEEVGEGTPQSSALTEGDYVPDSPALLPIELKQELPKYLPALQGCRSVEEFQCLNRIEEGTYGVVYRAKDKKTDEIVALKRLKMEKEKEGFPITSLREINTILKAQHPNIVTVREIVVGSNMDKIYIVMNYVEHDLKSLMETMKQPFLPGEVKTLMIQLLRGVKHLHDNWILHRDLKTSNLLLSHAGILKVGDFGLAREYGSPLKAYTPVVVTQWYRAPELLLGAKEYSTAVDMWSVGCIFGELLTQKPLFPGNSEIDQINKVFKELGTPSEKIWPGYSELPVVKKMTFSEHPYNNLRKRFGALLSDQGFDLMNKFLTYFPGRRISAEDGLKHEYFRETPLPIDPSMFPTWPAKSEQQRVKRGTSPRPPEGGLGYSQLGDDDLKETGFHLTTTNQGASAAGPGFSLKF

CDK16/Cyclin Y = CDK16/Cyclin Y (Homo sapiens, UniProt Q00536); test: NanoBRET live-cell target engagement, CDK16-NanoLuc/Cyclin Y in HEK-293; format: binding; settings: 10µM, read-out: CDK16/Y Inhibition at 10µM (%)
Sequence of CDK16/Cyclin Y (Q00536 whole entry): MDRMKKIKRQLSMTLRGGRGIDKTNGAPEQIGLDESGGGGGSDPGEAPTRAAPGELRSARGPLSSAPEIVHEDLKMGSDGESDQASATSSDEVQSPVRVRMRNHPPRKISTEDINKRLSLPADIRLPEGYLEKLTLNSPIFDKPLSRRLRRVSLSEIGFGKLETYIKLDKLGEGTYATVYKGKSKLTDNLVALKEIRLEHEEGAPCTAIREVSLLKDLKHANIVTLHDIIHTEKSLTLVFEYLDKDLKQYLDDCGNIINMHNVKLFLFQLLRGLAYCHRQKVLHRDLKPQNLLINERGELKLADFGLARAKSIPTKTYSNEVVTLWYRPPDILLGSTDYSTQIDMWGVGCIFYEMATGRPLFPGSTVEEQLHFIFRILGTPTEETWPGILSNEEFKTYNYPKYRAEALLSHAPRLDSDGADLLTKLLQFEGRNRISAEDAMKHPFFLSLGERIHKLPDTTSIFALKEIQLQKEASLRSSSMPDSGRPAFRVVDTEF
Sequence of CDK16/Cyclin Y (Q8ND76 whole entry partner): as the sequence (Q8ND76 whole entry partner) above

CDK17/Cyclin Y = CDK17/Cyclin Y (Homo sapiens, UniProt Q00537); test: NanoBRET live-cell target engagement, CDK17-NanoLuc/Cyclin Y in HEK-293; format: binding; settings: 10µM, read-out: CDK17/Y Inhibition at 10µM (%)
Sequence of CDK17/Cyclin Y (Q00537 whole entry): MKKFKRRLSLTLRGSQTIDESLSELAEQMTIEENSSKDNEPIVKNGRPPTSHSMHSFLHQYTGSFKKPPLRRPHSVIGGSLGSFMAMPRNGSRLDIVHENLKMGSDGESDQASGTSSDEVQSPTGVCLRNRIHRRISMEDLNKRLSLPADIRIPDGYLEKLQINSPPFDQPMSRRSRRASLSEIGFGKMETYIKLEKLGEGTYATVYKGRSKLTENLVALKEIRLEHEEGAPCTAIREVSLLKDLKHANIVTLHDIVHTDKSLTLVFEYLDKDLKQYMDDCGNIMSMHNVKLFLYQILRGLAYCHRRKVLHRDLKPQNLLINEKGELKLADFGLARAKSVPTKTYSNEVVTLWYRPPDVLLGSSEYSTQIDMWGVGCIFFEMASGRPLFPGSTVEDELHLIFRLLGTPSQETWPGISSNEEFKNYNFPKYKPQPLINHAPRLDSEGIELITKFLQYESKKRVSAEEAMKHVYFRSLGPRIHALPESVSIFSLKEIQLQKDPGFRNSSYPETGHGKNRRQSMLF
Sequence of CDK17/Cyclin Y (Q8ND76 whole entry partner): as the sequence (Q8ND76 whole entry partner) above

CDK14/Cyclin Y = CDK14/Cyclin Y (Homo sapiens, UniProt O94921); test: NanoBRET live-cell target engagement, CDK14-NanoLuc/Cyclin Y in HEK-293; format: binding; settings: 10µM, read-out: CDK14/Y Inhibition at 10µM (%)
Sequence of CDK14/Cyclin Y (O94921 whole entry): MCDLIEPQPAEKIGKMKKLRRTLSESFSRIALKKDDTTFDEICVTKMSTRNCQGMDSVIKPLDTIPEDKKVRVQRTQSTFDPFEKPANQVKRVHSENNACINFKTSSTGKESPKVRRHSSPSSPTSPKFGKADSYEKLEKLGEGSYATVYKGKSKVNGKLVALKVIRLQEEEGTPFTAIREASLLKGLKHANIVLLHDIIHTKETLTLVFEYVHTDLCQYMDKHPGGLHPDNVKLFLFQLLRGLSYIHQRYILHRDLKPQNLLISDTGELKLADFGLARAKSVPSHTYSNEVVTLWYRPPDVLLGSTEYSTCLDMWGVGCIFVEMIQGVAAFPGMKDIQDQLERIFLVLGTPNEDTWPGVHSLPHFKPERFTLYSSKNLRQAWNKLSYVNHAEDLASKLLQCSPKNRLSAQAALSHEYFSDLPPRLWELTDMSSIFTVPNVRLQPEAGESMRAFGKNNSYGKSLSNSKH
Sequence of CDK14/Cyclin Y (Q8ND76 whole entry partner): as the sequence (Q8ND76 whole entry partner) above

CDK11B/Cyclin L2 = CDK11B/Cyclin L2 (Homo sapiens, UniProt P21127); test: NanoBRET live-cell target engagement, CDK11B-NanoLuc/Cyclin L2 in HEK-293; format: binding; settings: 10µM, read-out: CDK11b/L2 Inhibition at 10µM (%)

Sequence of CDK9/Cyclin K (P50750 whole entry): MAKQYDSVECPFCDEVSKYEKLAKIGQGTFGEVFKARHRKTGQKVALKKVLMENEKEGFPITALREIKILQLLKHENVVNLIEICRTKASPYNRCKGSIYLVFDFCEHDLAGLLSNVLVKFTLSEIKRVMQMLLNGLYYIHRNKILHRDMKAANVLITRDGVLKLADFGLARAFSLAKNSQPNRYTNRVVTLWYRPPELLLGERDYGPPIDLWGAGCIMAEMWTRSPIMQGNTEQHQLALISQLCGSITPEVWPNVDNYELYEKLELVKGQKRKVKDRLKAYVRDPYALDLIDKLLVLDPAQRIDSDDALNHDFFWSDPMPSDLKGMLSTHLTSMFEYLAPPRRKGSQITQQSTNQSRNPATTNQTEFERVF
Sequence of CDK9/Cyclin K (O75909 whole entry partner): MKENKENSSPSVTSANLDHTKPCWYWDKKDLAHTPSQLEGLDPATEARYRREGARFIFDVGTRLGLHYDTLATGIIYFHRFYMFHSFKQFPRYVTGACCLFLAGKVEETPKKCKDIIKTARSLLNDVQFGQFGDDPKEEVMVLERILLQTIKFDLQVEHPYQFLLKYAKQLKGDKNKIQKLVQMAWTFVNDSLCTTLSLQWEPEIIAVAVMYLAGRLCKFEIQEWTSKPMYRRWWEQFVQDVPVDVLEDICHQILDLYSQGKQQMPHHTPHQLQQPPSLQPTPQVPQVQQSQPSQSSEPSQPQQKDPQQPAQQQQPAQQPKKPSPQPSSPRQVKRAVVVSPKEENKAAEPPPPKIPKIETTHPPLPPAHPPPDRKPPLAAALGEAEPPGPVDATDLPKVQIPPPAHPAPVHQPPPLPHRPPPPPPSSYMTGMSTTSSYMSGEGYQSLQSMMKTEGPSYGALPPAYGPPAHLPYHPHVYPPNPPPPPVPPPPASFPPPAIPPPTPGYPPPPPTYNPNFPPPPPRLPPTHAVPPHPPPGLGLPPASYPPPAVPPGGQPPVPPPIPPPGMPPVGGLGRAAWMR

## CC(=O)c1c(C)c2cnc(Nc3ccc(N4CCNCC4)cn3)nc2n(C2CCCC2)c1=O [Palbociclib]
CDK9/Cyclin K; independent experiment 1
  inhibition at 10 µM: 74.4%
CDK9/Cyclin K; independent experiment 2
  inhibition at 10 µM: 61%
CDK8/Cyclin C; independent experiment 1
  inhibition at 10 µM: 31.8%
CDK8/Cyclin C; independent experiment 2
  inhibition at 10 µM: 3.6%
CDK20/Cyclin H; independent experiment 1
  inhibition at 10 µM: 59.2%
CDK20/Cyclin H; independent experiment 2
  inhibition at 10 µM: 4.3%
CDK5/CDK5R1; independent experiment 1
  inhibition at 10 µM: 77.7%
CDK5/CDK5R1; independent experiment 2
  inhibition at 10 µM: 37.6%
CDK15/Cyclin Y; independent experiment 1
  inhibition at 10 µM: 41.6%
CDK15/Cyclin Y; independent experiment 2
  inhibition at 10 µM: 35.4%
CDK10/Cyclin L2; average of experiments
  inhibition at 10 µM: 25%
CDK10/Cyclin L2; independent experiment 1
  inhibition at 10 µM: 25.9%
CDK10/Cyclin L2; independent experiment 2
  inhibition at 10 µM: 24.1%
CDK2/Cyclin E1; independent experiment 1
  inhibition at 10 µM: 35.2%
CDK2/Cyclin E1; independent experiment 2
  inhibition at 10 µM: 95.5%
CDK7; independent experiment 1
  inhibition at 10 µM: 28.4%
CDK7; independent experiment 2
  inhibition at 10 µM: 36%
CDK12/Cyclin K
  inhibition at 10 µM: 2.4%
CDK13/Cyclin K; independent experiment 1
  inhibition at 10 µM: 25.1%
CDK13/Cyclin K; independent experiment 2
  inhibition at 10 µM: 15.6%
CDK19/Cyclin C; independent experiment 1
  inhibition at 10 µM: 39%
CDK19/Cyclin C; independent experiment 2
  inhibition at 10 µM: -2.3%
CDK11A/Cyclin L2; independent experiment 1
  inhibition at 10 µM: 23.2%
CDK11A/Cyclin L2; independent experiment 2
  inhibition at 10 µM: 26.5%
CDK16/Cyclin Y; independent experiment 1
  inhibition at 10 µM: 61.4%
CDK16/Cyclin Y; independent experiment 2
  inhibition at 10 µM: 83.2%
CDK17/Cyclin Y; average of experiments
  inhibition at 10 µM: 72%
CDK17/Cyclin Y; independent experiment 1
  inhibition at 10 µM: 66.6%
CDK17/Cyclin Y; independent experiment 2
  inhibition at 10 µM: 77.3%
CDK14/Cyclin Y; independent experiment 1
  inhibition at 10 µM: 44.4%
CDK14/Cyclin Y; independent experiment 2
  inhibition at 10 µM: 40%
CDK11B/Cyclin L2; independent experiment 1
  inhibition at 10 µM: 22.6%
CDK11B/Cyclin L2; independent experiment 2
  inhibition at 10 µM: 23.1%
